Measurements reported in the NIST ThermoML archive (doi:10.1016/j.fluid.2005.12.003).

Details: 101.33 kPa, Liquid

CCCCn1cc[n+](C)c1.F[P-](F)(F)(F)(F)F [1-butyl-3-methylimidazolium hexafluorophosphate]
Details | mass density [kg/m3]
283.13 K | 1380.43
293.12 K | 1372.15
293.3 K | 1371.88
302.83 K | 1363.87
303.3 K | 1363.48
312.68 K | 1355.45
313.17 K | 1355.18
322.64 K | 1347.23
323.23 K | 1346.72
332.56 K | 1338.7
333.66 K | 1337.95
342.41 K | 1330.79
343.27 K | 1329.87
